From patent US9096686B2, “E518A/K mutant smoothened and methods of using the same” (Genentech, Inc., priority 2010, dated 2015)
“Also recorded” adds a separate entry of the source. Like-named read-outs stand apart in the source and are kept apart here.

Tests used:
SMO-E518K = target: T1, SMO-E518K (Homo sapiens, UniProt Q99835, E518K); experiment: Gli-luciferase reporter assay, SMO-E518K overexpression in C3H10T½ cells; type: cell-based
T1 construct: expressed in transfected cells; host or cells: C3H10T1/2 mouse fibroblasts (ATCC CCL-226), pRK5 vector, CMV promoter
Description: (§1) Regions targeted by alanine scan mutagenesis are indicated in light grey. […] Values were normalized to maximum activity levels and represent means±SDs.
(§2) Circles mark the A-, B- and C-rings of some compounds as indicated for HhAntag.
(§3) Gli-luciferase reporter assays. Gli-luciferase reporter assays were performed as described (Rudin, C. M. et al. (2009) N. Engl. J. Med. 361:1173-1178) with the following modifications; C3H10T½ cells (ATCC, CCL-226) were seeded into six-well plates at 1.85×10^5 cells/well and values shown are the mean of four separate experiments ±1 standard deviation (SD).
(§4) These compounds were either identified in high-throughput screens (both in house and by others) or were generated by hit-to-lead optimization of screening hits using traditional medicinal chemistry methods. C3H10T½ cells were co-transfected with wild type or mutant SMO expression vectors together with a Gli-luciferase reporter construct (Murone M. et al. (1999) Curr. Biol. 9(2):76-84), and pathway activation was measured in the presence or absence of 1 μM compound.

SMO-E518A = target: T2, SMO-E518A (Homo sapiens, UniProt Q99835, E518A); experiment: Gli-luciferase reporter assay, SMO-E518A in C3H10T½ cells; type: cell-based; conditions: dose response; signaling activity despite 1 μM
T2 construct: expressed in transfected cells; host or cells: C3H10T1/2 mouse fibroblasts (ATCC CCL-226), pRK5 vector, CMV promoter
Description: as §1, §3

medulloblastoma = medulloblastoma patient, widespread metastatic disease; cited from earlier work
SMO-D473H = target: T3, SMO-D473H (Homo sapiens, UniProt Q99835, D473H); experiment: Gli-luciferase reporter assay, SMO-D473H overexpression in C3H10T½ cells; type: cell-based
T3 construct: expressed in transfected cells; host or cells: C3H10T1/2 mouse fibroblasts (ATCC CCL-226), pRK5 vector, CMV promoter
Description: as §2, §3, §4

[1] = Plasma pharmacokinetics after single oral dose in mice; type: in vivo
Text: as §2

SMO-WT = target: T4, SMO-WT (Homo sapiens, UniProt Q99835); experiment: Gli-luciferase reporter assay, SMO-WT overexpression in C3H10T½ cells; type: cell-based; conditions: 1 μM compound
T4 construct: expressed in transfected cells; host or cells: C3H10T1/2 mouse fibroblasts (ATCC CCL-226), pRK5 vector, CMV promoter
Description: as §2, §3, §4

[2] = Metabolism by human hepatocytes; type: in vitro ADME; conditions: unpublished observation

T3 sequence (Q99835 28-787 D473H): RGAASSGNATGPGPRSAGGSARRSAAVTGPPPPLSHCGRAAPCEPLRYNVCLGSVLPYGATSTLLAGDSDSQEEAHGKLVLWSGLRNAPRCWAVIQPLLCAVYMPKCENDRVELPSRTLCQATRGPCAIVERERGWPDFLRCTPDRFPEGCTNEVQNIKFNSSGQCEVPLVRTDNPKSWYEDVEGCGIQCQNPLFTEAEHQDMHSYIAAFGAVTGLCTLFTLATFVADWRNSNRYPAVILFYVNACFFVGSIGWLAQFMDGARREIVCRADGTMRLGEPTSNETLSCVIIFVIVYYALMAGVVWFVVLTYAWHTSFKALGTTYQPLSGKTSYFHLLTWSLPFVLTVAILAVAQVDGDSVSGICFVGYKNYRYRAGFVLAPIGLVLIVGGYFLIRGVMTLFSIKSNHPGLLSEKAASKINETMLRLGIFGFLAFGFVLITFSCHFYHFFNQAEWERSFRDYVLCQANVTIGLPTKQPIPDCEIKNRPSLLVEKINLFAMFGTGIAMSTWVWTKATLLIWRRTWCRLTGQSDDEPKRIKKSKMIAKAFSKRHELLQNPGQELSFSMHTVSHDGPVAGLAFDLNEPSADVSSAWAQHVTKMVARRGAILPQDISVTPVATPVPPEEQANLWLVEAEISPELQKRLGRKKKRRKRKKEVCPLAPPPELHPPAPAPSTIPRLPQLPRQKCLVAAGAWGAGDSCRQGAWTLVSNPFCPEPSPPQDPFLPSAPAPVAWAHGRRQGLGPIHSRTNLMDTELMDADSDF
T1 sequence (Q99835 28-787 E518K): as the sequence (Q99835 28-787 D473H) above, with H446D, E491K counted along it
T2 sequence (Q99835 28-787 E518A): as the sequence (Q99835 28-787 D473H) above, with H446D, E491A counted along it
T4 sequence (Q99835 28-787): as the sequence (Q99835 28-787 D473H) above, with H446D counted along it

Row | Compound | potency against SMO-D473H (inhibition of Gli-luciferase activity) (SMO-D473H; 1 μM compound, C3H10T½ cells) | potency against SMO-E518K (inhibition of Gli-luciferase activity) (SMO-E518K; 1 μM compound, C3H10T½ cells) | pharmacokinetic properties in mice [1] | further results
1 | CS(=O)(=O)c1ccc(C(=O)Nc2ccc(Cl)c(-c3ccccn3)c2)c(Cl)c1 [GDC-0449] | – | – | – | resistance of SMO-E518K to the inhibitor, Gli-luciferase reporter activity (SMO-E518K; dose response, up to 1 μM): completely resistant; resistance of SMO-E518A to the inhibitor, Gli-luciferase reporter activity (SMO-E518A): partially resistant; clinical response to treatment (medulloblastoma): dramatic and rapid response
2 | Cc1nn(-c2ccccc2)c(C)c1/C=N/N1CCN(Cc2ccccc2)CC1 [SANT-1] | partially resistant | sensitive | – | –
3 | O=C(Nc1ccc(Cl)c(NC(=O)c2cccc(Cl)c2)c1)c1ccc(N2CCC(O)CC2)nc1 [compound 4] | potent; also recorded: improved potencies | potent | good pharmacokinetic properties | –
4 | C[C@@H]1CN(c2ccc(C(=O)Nc3ccc(Cl)c(NC(=O)c4cccc(Cl)c4)c3)cn2)C[C@H](C)N1 [compound 5] | potent; also recorded: improved potencies | potent | good pharmacokinetic properties | half-life ([1]; mouse, single oral 100 mg kg-1 dose, plasma): 22 h
5 | CC1=C2C[C@H]3[C@@H](CC=C4C[C@@H](O)CC[C@@]43C)[C@@H]2CC[C@]12O[C@@H]1C[C@H](C)CN[C@H]1[C@H]2C [cyclopamine] | – | – | – | potency against SMO-D473H (inhibition of Gli-luciferase activity) (SMO-D473H): partially resistant; potency against SMO-E518K (inhibition of Gli-luciferase activity) (SMO-E518K): completely resistant
6 | HhAntag | essentially equipotent against all SMO alleles | essentially equipotent against all SMO alleles | – | activity against wild type SMO (inhibition of Gli-luciferase activity) (SMO-WT): essentially equipotent against all SMO alleles; metabolism by human hepatocytes [2]: rapidly metabolized
